# Reference: patent EP2664616A1, “Hydantoin and thiohydantoin derivatives as antiviral drugs” (priority 2012, dated 2013)
# System: HCV replicon Luc Neo ET
# Assay: HCV replication inhibition assay (replicon assay, luciferase reporter)
# Type: cell-based
# Settings: Hepatitis C virus; Huh-7 cell lines containing HCV replicon Luc Neo ET; 72 hours with compound; 1 % DMSO; firefly luciferase reporter; concentration that produces 50 % of replication inhibition; read-out: EC50 Replicon LucneoET
# Description: The compounds according to the present invention were tested for their ability to inhibit HCV replication as follows:
# Huh-7 cell lines containing HCV replicon Luc Neo ET (Reblikon) were maintained in DMEM supplemented with 10% SVF, 2 mM glutamine, and 1 X NEAA, 100 U / ml penicillin, and 100 µg / ml streptomycine. Cells were maintained in medium supplemented with 0.5 mg/ml G418, at 37°C and 5% CO2 in a humidified atmosphere. Cells were dissociated at sub confluence with trypsin EDTA 1X.
# Replicon Luc Neo ET is bicistronic expression constructs (Lohmann et al, 1999, Science 285, 110-113). In brief, the structural genes of the HCV genome were replaced by heterologous sequences; the gene encoding the neomycin phosphotransferase (NPT) and the internal ribosome entry site (IRES) of the encephalomyocarditis virus (EMCV). The bicistronic construct is therefore composed of the following elements: HCV-IRES nucleotides 1-389 for Luc Neo ET, the NPT gene, the EMCV-IRES directing translation of downstream HCV sequences from NS2 or NS3 up to the authentic 3' end of the genome. HCV Polyprotein of Luc Neo ET replicon harbours the cell culture adaptive mutations E1202G, T1280I, K1846T. G418-resistance is only possible with cells containing high amounts of replicon.
# Cells were dissociated the day before addition of compounds and seeded in 96 well-plates at a final concentration of 27 777.77 cells.ml^-1.cm^-2 in 90µl final volume of culture medium per well and were maintained at 37°C and 5% CO2 in a humidified atmosphere for 24 hours. 10 µl of compounds to be tested were added 24 hours after seeding. Final concentration of DMSO was 1 %. Cells were incubated in the presence of compounds for 72 hours after which expression of firefly luciferase reporter gene was quantified. Briefly, culture medium was removed and cells were lysed by addition of 100 µl of lysis buffer containing 125 mM Tris Phosphate ph 7.8, 10 mM EDTA, 5 mM DTT, 50 % glycerol and 5 % Triton. Plates were vortexed 10 min at 1300 rpm. 100µl of luciferin solution 1X were added to each well. Luciferin solution contained 40 mM Tris Phosphate ph 7.8, 0.2 mM EDTA, 67 mM DTT, 2.14 mM MgCl2, 5.4 mM MgSO4, 4.7 x 10^-4 M luciferin, 5.3 x 10^-4 M ATP and 2.7 x 10^-4 M Acetyl co enzyme A. Luminescence was immediately measured with Berthold Microlumat Plus LB 96V luminometer with an integration of 1 sec. Inhibition was calculated using the formula: % inhibition = 1-[(RLUsample-RLUbackground)/(RLUsignal-RLUbackground)].
# The Table 1 below illustrates data on the biological activity of compounds of the present invention. Results are expressed as EC50 which is the concentration that produces 50 % of replication inhibition. Table 1. HCV replication inhibition assay
row,Compound,EC50 [µM]
1,"Cc1ccc(NC(=O)CC2C(=O)N(c3ccccc3)C(=S)N2CCc2ccc(Cl)cc2)cc1 (stereo not shown) [Example 37, 2-{3-[2-(4-chlorophenyl)ethyl]-5-oxo-1-phenyl-2-sulfanylideneimidazolidin-4-yl}-N-(4-methylphenyl)acetamide]",< 5
2,"O=C(CC1C(=O)N(c2ccccc2)C(=S)N1CCc1ccc(Cl)cc1)Nc1ccc(Cl)c(Cl)c1 (stereo not shown) [Example 38, 2-{3-[2-(4-chlorophenyl)ethyl]-5-oxo-1-phenyl-2-sulfanylideneimidazolidin-4-yl}-N-(3,4-dichlorophenyl)acetamide]",< 5
3,"NC(=O)c1ccc(NC(=O)CC2C(=O)N(c3ccccc3)C(=S)N2CCc2ccc(Cl)cc2)cc1 (stereo not shown) [Example 40, 4-(2-{3-[2-(4-chlorophenyl)ethyl)-5-oxo-1-phenyl-2-sulfanylideneimidazolidin-4-yl}acetamido)benzamide]",< 5
4,"O=C(CC1C(=O)N(c2ccc(F)cc2)C(=S)N1CCc1ccc(Cl)cc1)Nc1ccc(N2CCOCC2)cc1 (stereo not shown) [Example 41, 2-{3-[2-(4-chlorophenyl)ethyl]-1-(4-fluorophenyl)-5-oxo-2-sulfanylideneimidazolidin-4-yl}-N-[4-(morpholin-4-yl)phenyl]acetamide]",< 0.5
5,"COc1ccc(CCN2C(=O)N(c3ccc(F)cc3)C(=O)C2CC(=O)Nc2ccc(N(C)C)cc2)cc1 (stereo not shown) [Example 42, N-[4-(dimethylamino)phenyl]-2-[1-(4-fluorophenyl)-3-[2-(4-methoxyphenyl)ethyl]-2,5-dioxoimidazolidin-4-yl]acetamide]",< 5
6,"COCCN(C)c1ccc(NC(=O)CC2C(=O)N(c3ccc(F)cc3)C(=O)N2CCc2ccc(OC)cc2)cc1 (stereo not shown) [Example 43, 2-[1-(4-fluorophenyl)-3-[2-(4-methoxyphenyl)ethyl]-2,5-dioxoimidazolidin-4-yl]-N-{4-[(2-methoxyethyl)(methyl)amino]phenyl}acetamide]",< 5
7,"COc1ccc(CCN2C(=O)N(c3ccc(F)cc3)C(=O)C2CC(=O)Nc2ccc(N(C)C)c(C)c2)cc1 (stereo not shown) [Example 44, N-[4-(dimethylamino)-3-methylphenyl]-2-[1-(4-fluorophenyl)-3-[2-(4-methoxyphenyl)ethyl]-2,5-dioxoimidazolidin-4-yl]acetamide]",< 30
8,"CN(C)c1ccc(NC(=O)CC2C(=O)N(c3ccc(F)cc3)C(=O)N2CCc2cccs2)cc1 (stereo not shown) [Example 45, N-[4-(dimethylamino)phenyl]-2-[1-(4-fluorophenyl)-2,5-dioxo-3-[2-(thiophen-2-yl)ethyl]imidazolidin-4-yl]acetamide]",< 5
9,"COc1ccc(NC(=O)CC2C(=O)N(c3ccc(F)cc3)C(=S)N2CCc2cccs2)cc1 (stereo not shown) [Example 46, 2-[1-(4-fluorophenyl)-5-oxo-2-sulfanylidene-3-[2-(thiophen-2-yl)ethyl]imidazolidin-4-yl]-N-(4-methoxyphenyl)acetamide]",< 0.5
10,"COc1ccc(NC(=O)CC2C(=O)N(c3ccc(F)cc3)C(=S)N2CCc2ccc(N(C)C)cc2)cc1 (stereo not shown) [Example 47, 2-(3-{2-[4-(dimethylamino)phenyl]ethyl}-1-(4-fluorophenyl)-5-oxo-2-sulfanylideneimidazolidin-4-yl)-N-(4-methoxyphenyl)acetamide]",< 0.5

# Same assay, conditions: Huh-7 cell lines containing HCV replicon Luc Neo ET; 72 hours with compound; 1 % DMSO; firefly luciferase reporter; concentration that produces 50 % of replication inhibition; read-out: EC50 Replicon LucneoET
row,Compound,EC50 [µM]
1,2-{3-[2-(4-chlorophenyl)ethyl]-1-(4-fluorophenyl)-4-hydroxy-5-oxo-2-sulfanylideneimidazolidin-4-yl}-N-[4-(dimethylamino)phenyl]acetamide [Example 65],< 0.5
2,2-{3-[2-(4-chlorophenyl)ethyl]-1-(4-fluorophenyl)-5-oxo-2-sulfanylideneimidazolidin-4-yl}-N-(5-methoxypyridin-2-yl)acetamide [Example 67],< 5
3,2-{3-[2-(4-chlorophenyl)ethyl]-4-hydroxy-5-oxo-1-phenyl-2-sulfanylideneimidazolidin-4-yl}-N-[4-(dimethylamino)phenyl]acetamide [Example 63],< 0.5
4,2-{3-[2-(4-chlorophenyl)ethyl]-5-oxo-1-phenyl-2-sulfanylideneimidazolidin-4-yl}-N-(pyridin-3-ylmethyl)acetamide [Example 56],< 5
5,CCCOc1ccc(NC(=O)CC2C(=O)N(c3ccccc3)C(=S)N2CCc2ccccc2)cc1 (stereo not shown) [Example 1],< 0.5
6,CCCOc1ccc(NC(=O)CC2C(=O)N(c3ccccc3)C(=S)N2CCc2ccc(Cl)cc2)cc1 (stereo not shown) [Example 2],< 0.5
7,COc1ccc(CCN2C(=S)N(c3ccccc3)C(=O)C2CC(=O)Nc2ccc(OC)cc2)cc1 (stereo not shown) [Example 3],< 0.5
8,COc1ccc(NC(=O)CC2C(=O)N(c3ccccc3)C(=S)N2CCc2ccc(OC)c(OC)c2)cc1 (stereo not shown) [Example 4],< 5
9,COc1ccc(NC(=O)CC2C(=O)N(c3ccccc3)C(=S)N2CCc2ccc(Cl)cc2)cc1 (stereo not shown) [Example 5],< 0.5
10,COc1ccc(CCN2C(=S)N(c3ccc(F)cc3)C(=O)C2CC(=O)Nc2ccc(OC)cc2)cc1 (stereo not shown) [Example 6],< 0.5
11,CCOc1ccc(NC(=O)CC2C(=O)N(c3ccccc3)C(=S)N2CCc2ccccc2F)cc1 (stereo not shown) [Example 7],< 0.5
12,O=C(CC1C(=O)N(c2ccc(F)cc2)C(=S)N1CCc1ccc(Cl)cc1)Nc1ccccc1 (stereo not shown) [Example 8],< 0.5
13,COc1ccc(NC(=O)CC2C(=O)N(c3ccc(F)cc3)C(=S)N2CCc2ccc(Cl)cc2)cc1 (stereo not shown) [Example 9],< 0.5
14,CCCOc1ccc(NC(=O)CC2C(=O)N(c3ccccc3)C(=S)N2CCCN2CCN(Cc3ccccc3)CC2)cc1 (stereo not shown) [Example 10],< 5
15,O=C(CC1C(=O)N(c2ccccc2)C(=S)N1CCc1ccc(Cl)cc1)Nc1ccccc1 (stereo not shown) [Example 11],< 5
16,COc1ccc(NC(=O)CC2C(=O)N(c3ccccc3)C(=O)N2CCC2=CCCCC2)cc1 (stereo not shown) [Example 12],< 0.5
17,COc1ccc(NC(=O)CC2C(=O)N(c3ccc(F)cc3)C(=S)N2CCCN2CCN(Cc3ccccc3)CC2)cc1 (stereo not shown) [Example 13],< 0.5

row,Compound,EC50 [µM]
1,COc1ccc(NC(=O)CC2C(=O)N(c3ccc(F)cc3)C(=S)N2CCCN2CCN(c3ccccc3)CC2)cc1 (stereo not shown) [Example 14],< 0.5
2,CCOc1ccc(NC(=O)CC2C(=O)N(c3ccccc3)C(=O)N2CCC(C)C)cc1 (stereo not shown) [Example 15],< 5
3,COc1ccc(NC(=O)CC2C(=O)N(c3ccc(F)cc3)C(=O)N2CCc2cccs2)cc1 (stereo not shown) [Example 16],< 5
4,COc1ccc2[nH]cc(CCN3C(=S)N(c4ccccc4)C(=O)C3CC(=O)Nc3ccccc3)c2c1 (stereo not shown) [Example 17],< 5
5,CCOc1cccc(NC(=O)CC2C(=O)N(c3ccccc3)C(=S)N2CCc2ccc(F)cc2)c1 (stereo not shown) [Example 18],< 5
6,CCOc1ccc(NC(=O)CC2C(=O)N(c3cccc(C(F)(F)F)c3)C(=S)N2CCc2ccccc2F)cc1 (stereo not shown) [Example 19],< 5
7,O=C(CC1C(=O)N(c2ccc(Cl)cc2)C(=S)N1CCc1ccc(Cl)cc1)Nc1ccc(F)cc1 (stereo not shown) [Example 20],< 30
8,O=C(CC1C(=O)N(c2ccccc2)C(=S)N1CCc1ccccc1)Nc1ccc(Cl)cc1 (stereo not shown) [Example 22],< 5
9,Cc1ccsc1CCN1C(=S)N(c2ccccc2)C(=O)C1CC(=O)Nc1ccc(F)cc1 (stereo not shown) [Example 23],< 5
10,O=C(CC1C(=O)N(c2ccccc2)C(=S)N1CCc1ccc(Cl)cc1)Nc1ccc(Cl)cc1 (stereo not shown) [Example 24],< 5
11,COC(=O)c1ccc(NC(=O)CC2C(=O)N(c3ccccc3)C(=S)N2CCc2ccc(Cl)cc2)cc1 (stereo not shown) [Example 25],< 5
12,COc1ccc(NC(=O)CC2C(=O)N(c3ccc(C)cc3)C(=S)N2CCc2ccccc2)cc1 (stereo not shown) [Example 26],< 5
13,COCCCN1C(=S)N(c2ccc(F)cc2)C(=O)C1CC(=O)Nc1ccc(OC)cc1 (stereo not shown) [Example 27],< 30
14,CCCOc1ccc(NC(=O)CC2C(=O)N(C3CCCCC3)C(=S)N2Cc2ccc(OC)cc2)cc1 (stereo not shown) [Example 29],< 30
15,CCCOc1ccc(NC(=O)CC2C(=O)N(c3ccc(F)cc3)C(=S)N2CCCN2CCN(CC)CC2)cc1 (stereo not shown) [Example 31],< 30
16,COc1ccc(NC(=O)CC2C(=O)N(Cc3ccccc3)C(=S)N2CCc2ccc(Cl)cc2)cc1 (stereo not shown) [Example 32],< 30
